The source of these data is patent US20240122894A1, “METHODS TO SYNTHESIZE FLAVONOID DIMERS AND OLIGOMERS AND THE USE THEREOF” (National University of Singapore, priority 2020, published 2024).

For one data set, the system named is α-glucosidase. Nature of the data set: High-throughput starch hydrolase inhibition assay (turbidity, corn starch). In kind it is biochemical. The method, then: (§1) The inhibitory activity of each fraction obtained on α-amylase and α-glucosidase were determined using the turbidity measurement according to a reported method (Liu, Song, Wang, & Huang, 2011, Journal of agricultural and food chemistry 2011 Vol. 59 Issue 18 Pages 9756-9762). Corn starch (20 mg/mL) was suspended in sodium phosphate buffer (0.1 M, pH 6.9) and gelatinized at 100° C. for 2.5 min. The inhibitor solution was diluted in buffer to appropriate concentrations. Acarbose was used as a positive control and a reference standard. α-amylase solution (2 U/mL in buffer, 20 μL) or α-glucosidase solution (1×10−2 U/mL in buffer) was pre-incubated with inhibitor solution (20 μL) with series of concentrations in a 96-well microplate and kept at 37° C. for 15 min. The reaction was initiated by injecting 60 μL of the gelatinized corn starch solution. The turbidity changes were recorded at 660 nm every minute for 2 h using a Synergy HT microplate reader (Biotek Instruments Inc., Winooski, VT, USA). The inhibition percentage was calculated using Equation 10.
(§2) Inhibition (%)=(AUCsample−AUCcontrol)/AUCsample×100% (Equation 10)
(§3) Where AUCsample is the area under the inhibitory curve and AUCcontrol is the area under the curve negative control. The IC50 can be defined as the concentration of an inhibitor that produces 50% inhibition of enzyme activity under a specified assay condition. It was obtained from interpolation of percentage of inhibition against inhibitor concentration curve. In order to avoid run-to-run error due to fluctuation of enzymatic activity, the acarbose equivalent (AE) was used to express the inhibitory activity of sample based on the following equation:
(§4) AE of a sample=IC50 of acarbose/IC50 of a sample (Equation 11)

In the next data set the target is T1, α-amylase (Sus scrofa, UniProt P00690).
T1 sequence (P00690 16-511): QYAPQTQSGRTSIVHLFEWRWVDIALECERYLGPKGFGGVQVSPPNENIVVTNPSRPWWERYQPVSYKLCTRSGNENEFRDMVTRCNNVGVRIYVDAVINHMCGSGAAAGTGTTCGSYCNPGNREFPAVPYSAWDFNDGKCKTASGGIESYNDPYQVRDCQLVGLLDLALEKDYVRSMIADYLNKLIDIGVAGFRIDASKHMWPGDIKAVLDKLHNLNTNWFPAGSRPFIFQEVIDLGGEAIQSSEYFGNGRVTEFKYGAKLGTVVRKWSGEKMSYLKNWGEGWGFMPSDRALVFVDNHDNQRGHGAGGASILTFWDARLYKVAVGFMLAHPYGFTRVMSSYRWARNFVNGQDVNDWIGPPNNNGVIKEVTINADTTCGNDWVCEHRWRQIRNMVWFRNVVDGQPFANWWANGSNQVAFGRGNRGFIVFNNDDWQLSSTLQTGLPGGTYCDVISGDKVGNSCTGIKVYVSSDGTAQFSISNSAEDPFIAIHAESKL
Described as above. In kind it is biochemical. As to the method:
as §1, §2, §3, §4

Data set [1] has as its system Aspergillus niger ATCC 16888. Nature of the data set: Antifungal activity, radial growth technique on PDA medium. The class given is cell-based. Conditions: ATCC16888, read-out: IC50, inhibition of the growth of A. niger. The method, then: The antifungal activity was evaluated against two fungi, Aspergillus niger ATCC 16888 and Botrytis cinerea ATCC 11542, isolated and identified with ITS gene (GenBank accession number AY373852, A. S. Taha et al., BioResources 2019, 14, 6025-6046). The bioassay was evaluated using the radial growth technique method (P. Wayne, Reference method for broth dilution antifungal susceptibility testing of yeasts, approved standard. CLSI document M27-A2, 2002). Both fungal strains were cultivated aerobically on PDA medium at 25° C. for 14 days. The fungal spores were collected with sterile cotton swabs and suspended in sterile water, and the concentrations were adjusted according to the requirements of the antifungal assays to be performed.
Flavonoids oligomers were dissolved in DMSO ([…]), then transferred into sterilized warm PDA medium (40 to 45° C.) to achieve a final concentration of 1.0 mg/mL, 0.6 mg/mL and 0.4 mg/mL, before immediately pouring into 24-well sterile plastic microtitration plates containing flat-bottomed wells (Corning Incorporated, costar). […]
From a 7-day-old colony, the fungus with discs of 9 mm diameter was transferred to the center of the treated PDA plates and controls. […] All the tested concentrations, as well as positive and negative controls, were measured in triplicate.

Another data set concerns blood glucose. Nature of the data set: Glycemic response of mice after starch gavage. In kind it is in vivo. The method, then:
A 10% (w/v) starch solution was prepared by addition of distilled water to reagent grade corn starch and heating the solution it in a boiling water bath for about 15 minutes until it was completely gelatinized. 8-week-old male wild-type C57BL/6J mice were fasted overnight (free water intake), and weighed the next day. The tail of the mice was trimmed and the blood was taken for measurement of fasting blood glucose concentration with a Roche blood glucose meter. Feeding method a, “YX2+Starch”: Luteolin dimer (2a) was gavaged as a 2 mg/mL water solution, at the dosage level of 20 mg/kg body weight of the animal. Thirty minutes later, the 10% (w/v) starch solution was gavaged at 1 g/kg body weight. Feeding method b, “Starch (+YX2)”: Luteolin dimer (2a) was mixed with starch at 0.2% ratio by dried weight and mixed with water (1:9 by weight) to give a slurry labelled as Starch (+YX2) (FIG. 41). The mixture was gavaged to mice at with 1 g/kg body weight. In comparison, luteolin (1a or YX1) was mixed with starch at 0.2% by weight. The resulting mixture was further mixed with water to give 10% starch slurry labelled as starch (+YX1) (FIG. 41). The mice were gavaged with 1 g/kg body weight. The blood glucose values were measured at 30, 60, 90, 120 minutes to make the blood glucose curve, GraphPad draws the blood glucose response curve after meal, and the area under the curve was calculated.

The nature of data set [2]: Solubility in water (observation). The class given is physicochemical. Conditions: in water or slightly basic aqueous solution.
The nature of data set [3]: Determination of pKa values by 13C NMR spectroscopy under argon. In kind it is physicochemical. As to the method:
Luteolin (200 mg) was added in the three-necks round bottle flask fitted with a pH meter under argon (FIG. 12). Degassed water (20 mL) was added with stirring. To the solution, degassed aqueous KOH solution was injected through a syringe to adjust the pH. Aliquots (500 μL) of samples at a given pH value were transferred to 5 mm NMR tubes (Armar Chemicals, Switzerland). To the same NMR tube, deuterium oxide (D20, 5.0 μL) was added introduced for deuterium lock and a DMSO-d6 solution encapsulated in capillary tube (FIG. 12) was placed in the tube as the external standard for (at 2.50 ppm for CD3SOCD3, H. E. Gottlieb, V. Kotlyar & A. Nudelman, J. Org. Chem. 1997, 62, 7512-7515). The spectra were recorded and analyzed with MestReNova (Mestrelab research, version 5.2.5-4119). The resulting sigmoidal curve was subjected to nonlinear curve fitting using Prism® (GraphPad, version 5.0b and 5.0f). The dissociation constant pKa was calculated using the Henderson-Hasselback equation (Equation 1-4).
Where LH4, LH3^−, LH2^2−, LH^3− and L^4− are the species of luteolin in fully protonated form, first deprotonated, second deprotonated, third deprotonated 100% deprotonated form.
The chemical shift of the carbons in luteolin is dependent on the relative concentrations of the conjugate pair. For a solution at pH within pKa1 range, and the species in solution is ˜100% protonated (LH4), and the chemical shifts are that of the protonated species, δlow−1. For a solution at a higher pH the species in solution is first deprotonated (LH3^−), and the chemical shifts are that of the deprotonated species, δhigh−1.
Equation 7-8 were applied to determine the mole fraction of conjugate pair from chemical shift of a specific carbon. The assignment of ^13C NMR of luteolin was further confirmed by HSQC and HMBC methods with 2D correlation with ^1H NMR.

For data set [4] the following is noted: literature (Electrochim. Acta 2013); cited from earlier work.
Setting [5] is: 0.2% mixture of compound in starch, gavaged at 1 g/kg body weight.

In the case of `O=c1cc(-c2ccc(O)c(O)c2-c2c(O)cc3oc(-c4ccc(O)cc4)cc(=O)c3c2O)oc2cc(O)cc(O)c12` [Compound 2b, 6-(6-(5,7-dihydroxy-4-oxo-4H-chromen-2-yl)-2,3-dihydroxyphenyl)-5,7-dihydroxy-2-(4-hydroxyphenyl)-4H-chromen-4-one], the “activity in inhibiting α-glucosidase compared with acarbose” value with α-glucosidase is on record as “even higher”. The “activity in inhibiting α-amylase compared with acarbose” value on α-amylase was “even higher”.

As to `O=c1cc(-c2ccc(O)c(O)c2-c2c(O)cc3oc(-c4ccc(O)c(O)c4)cc(=O)c3c2O)oc2cc(O)cc(O)c12` [Compound 2a, 6-(6-(5,7-dihydroxy-4-oxo-4H-chromen-2-yl)-2,3-dihydroxyphenyl)-2-(3,4-dihydroxyphenyl)-5,7-dihydroxy-4H-chromen-4-one], the IC50 in data set [1] worked out at 860 nM. Moreover, the glycemic response result in the data set on blood glucose (20 mg/kg by gavage 30 minutes before starch at 1 g/kg body weight (curve YX2+starch)) was “no glycemic response”; with blood glucose (setting [5]), “comparable to that of the mice fed only with same dose of starch”; in the data set on blood glucose (mice fed only with compound at 20 mg/kg body weight, no starch), “did not lead to glycemic response”. For the same compound, the “activity in inhibiting α-glucosidase compared with acarbose” value in the data set with α-glucosidase was “comparable”. Further, at α-amylase, the “activity in inhibiting α-amylase compared with acarbose” value was “comparable”.

Regarding `O=c1cc(-c2ccc(O)c(O)c2)oc2cc(O)cc(O)c12` [luteolin], the solubility result in data set [2] is on record as “poor solubility”. In data set [3] (C(3′)-OH), this compound yielded a pKa3 of 12.78. In data set [3] (C(4′)-OH), this compound returned a pKa2 of 8.93. Also, the pKa4 in data set [3] (C(5)-OH) was found to be 13.03. For the same compound, the pKa1 in data set [3] (C(7)-OH, first deprotonation) amounted to 8.00. Also, the glycemic response result in the data set with blood glucose (setting [5]) is given as “almost the same as that of the mice fed only with same dosage of starch”. For the same compound, in data set [4], the “pKa1, literature values” is approximately 6.0. The “activity in inhibiting α-amylase compared with acarbose” value on α-amylase is on record as “no activity”.

Regarding `O=c1cc(-c2ccc(O)c(O)c2-c2c(O)cc3oc(-c4ccc(O)c(O)c4-c4c(O)cc5oc(-c6ccc(O)c(O)c6)cc(=O)c5c4O)cc(=O)c3c2O)oc2cc(O)cc(O)c12` [Compound 3a, 6-(6-(5,7-dihydroxy-4-oxo-4H-chromen-2-yl)-2,3-dihydroxyphenyl)-2-(2-(2-(3,4-dihydroxyphenyl)-5,7-dihydroxy-4-oxo-4H-chromen-6-yl)-3,4-dihydroxyphenyl)-5,7-dihydroxy-4H-chromen-4-one], the IC50 in data set [1] was 960 nM.

The IC50 is the midpoint of a concentration-inhibition curve.
